Data taken from ChEMBL document CHEMBL4507317, “Data for DCP probe BAY-899” (2021).

What was measured:
[1] = target: Mitogen-activated protein kinase kinase kinase 15 (Homo sapiens) (UniProt Q6ZN16); conditions: Compound concentration 1000.0 nM
[2] = target: Tyrosine-protein kinase ITK/TSK (Homo sapiens) (UniProt Q08881); conditions: Compound concentration 1000.0 nM
[3] = target: Eukaryotic translation initiation factor 2-alpha kinase 1 (Homo sapiens) (UniProt Q9BQI3); conditions: Compound concentration 1000.0 nM
[4] = target: Casein kinase I isoform delta (Homo sapiens) (UniProt P48730); conditions: Compound concentration 1000.0 nM
[5] = target: Dual specificity tyrosine-phosphorylation-regulated kinase 2 (Homo sapiens) (UniProt Q92630); conditions: Compound concentration 1000.0 nM
[6] = target: Homeodomain-interacting protein kinase 4 (Homo sapiens) (UniProt Q8NE63); conditions: Compound concentration 1000.0 nM
[7] = target: Serine/threonine-protein kinase D3 (Homo sapiens) (UniProt O94806); conditions: Compound concentration 1000.0 nM
[8] = target: Non-receptor tyrosine-protein kinase TYK2 (Homo sapiens) (UniProt P29597); conditions: Compound concentration 1000.0 nM
[9] = system: Tyrosine-protein kinase ABL1 (Homo sapiens), P00519 [F317L]; conditions: Compound concentration 1000.0 nM
[10] = target: 5-hydroxytryptamine receptor 6 (Homo sapiens) (UniProt P50406); conditions: Compound concentration 10.0 uM
[11] = target: Mitogen-activated protein kinase kinase kinase 5 (Homo sapiens) (UniProt Q99683); conditions: Compound concentration 1000.0 nM
[12] = target: Serine/threonine-protein kinase 3 (Homo sapiens) (UniProt Q13188); conditions: Compound concentration 1000.0 nM
[13] = target: Serine/threonine-protein kinase 33 (Homo sapiens) (UniProt Q9BYT3); conditions: Compound concentration 1000.0 nM
[14] = target: MAP/microtubule affinity-regulating kinase 3 (Homo sapiens) (UniProt P27448); conditions: Compound concentration 1000.0 nM
[15] = target: Serine/threonine-protein kinase 25 (Homo sapiens) (UniProt O00506); conditions: Compound concentration 1000.0 nM
Serine/threonine-protein kinase 25 (Homo sapiens), sequence (O00506 whole entry, looked up): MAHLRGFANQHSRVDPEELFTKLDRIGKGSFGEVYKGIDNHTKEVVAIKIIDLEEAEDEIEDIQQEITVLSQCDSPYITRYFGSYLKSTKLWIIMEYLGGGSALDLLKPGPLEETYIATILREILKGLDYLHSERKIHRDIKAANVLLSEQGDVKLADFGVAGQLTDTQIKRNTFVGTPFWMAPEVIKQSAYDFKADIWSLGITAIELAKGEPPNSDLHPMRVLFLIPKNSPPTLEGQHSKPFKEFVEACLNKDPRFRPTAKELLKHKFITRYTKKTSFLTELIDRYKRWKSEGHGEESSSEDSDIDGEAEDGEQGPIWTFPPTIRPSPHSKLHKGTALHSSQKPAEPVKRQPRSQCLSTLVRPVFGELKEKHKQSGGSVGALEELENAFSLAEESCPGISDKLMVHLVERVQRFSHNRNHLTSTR

[16] = target: Muscarinic acetylcholine receptor M2 (Homo sapiens) (UniProt P08172); conditions: Compound concentration 10.0 uM
[17] = target: Aurora kinase B (Homo sapiens) (UniProt Q96GD4); conditions: Compound concentration 1000.0 nM
[18] = target: Sigma non-opioid intracellular receptor 1 (Homo sapiens, UniProt Q99720); test: GPCRScan assay: inhibition of Sigma 1; set-up: radioligand conc. used [nm] 4.0 – 5.0, parental cells HEKT
[19] = target: Serine/threonine-protein kinase PknB (Mycobacterium tuberculosis) (UniProt P9WI81); conditions: Compound concentration 1000.0 nM
[20] = target: Histamine H1 receptor (Homo sapiens) (UniProt P35367); conditions: Compound concentration 10.0 uM
[21] = target: MAP kinase-interacting serine/threonine-protein kinase 1 (Homo sapiens) (UniProt Q9BUB5); conditions: Compound concentration 1000.0 nM
[22] = target: Dual specificity testis-specific protein kinase 1 (Homo sapiens) (UniProt Q15569); conditions: Compound concentration 1000.0 nM
[23] = target: Activin receptor type-1B (Homo sapiens) (UniProt P36896); conditions: Compound concentration 1000.0 nM
[24] = system: Receptor-type tyrosine-protein kinase FLT3 (Homo sapiens), P36888 [D835Y]; conditions: Compound concentration 1000.0 nM
[25] = target: Cyclin-dependent kinase-like 3 (Homo sapiens) (UniProt Q8IVW4); conditions: Compound concentration 1000.0 nM
[26] = system: Tyrosine-protein kinase ABL1 (Homo sapiens), P00519 [T315I]; conditions: Compound concentration 1000.0 nM
[27] = target: Cyclin-dependent kinase 18 (Homo sapiens) (UniProt Q07002); conditions: Compound concentration 1000.0 nM
[28] = target: D(1B) dopamine receptor (Homo sapiens) (UniProt P21918); conditions: Compound concentration 10.0 uM
D(1B) dopamine receptor (Homo sapiens), sequence (P21918 whole entry): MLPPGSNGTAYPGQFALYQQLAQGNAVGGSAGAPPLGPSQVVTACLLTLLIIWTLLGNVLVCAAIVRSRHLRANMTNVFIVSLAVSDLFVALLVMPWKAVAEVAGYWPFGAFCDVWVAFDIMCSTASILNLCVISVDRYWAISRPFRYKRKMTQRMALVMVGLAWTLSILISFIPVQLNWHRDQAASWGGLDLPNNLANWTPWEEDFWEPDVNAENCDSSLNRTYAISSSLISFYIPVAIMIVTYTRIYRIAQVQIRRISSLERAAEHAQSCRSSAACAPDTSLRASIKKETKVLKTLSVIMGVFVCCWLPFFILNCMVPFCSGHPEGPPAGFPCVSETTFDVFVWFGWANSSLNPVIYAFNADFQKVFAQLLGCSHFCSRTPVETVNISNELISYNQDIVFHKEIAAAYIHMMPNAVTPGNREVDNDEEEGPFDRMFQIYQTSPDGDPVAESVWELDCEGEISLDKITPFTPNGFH

[29] = target: Protein kinase C eta type (Homo sapiens) (UniProt P24723); conditions: Compound concentration 1000.0 nM
Protein kinase C eta type (Homo sapiens), sequence (P24723 whole entry): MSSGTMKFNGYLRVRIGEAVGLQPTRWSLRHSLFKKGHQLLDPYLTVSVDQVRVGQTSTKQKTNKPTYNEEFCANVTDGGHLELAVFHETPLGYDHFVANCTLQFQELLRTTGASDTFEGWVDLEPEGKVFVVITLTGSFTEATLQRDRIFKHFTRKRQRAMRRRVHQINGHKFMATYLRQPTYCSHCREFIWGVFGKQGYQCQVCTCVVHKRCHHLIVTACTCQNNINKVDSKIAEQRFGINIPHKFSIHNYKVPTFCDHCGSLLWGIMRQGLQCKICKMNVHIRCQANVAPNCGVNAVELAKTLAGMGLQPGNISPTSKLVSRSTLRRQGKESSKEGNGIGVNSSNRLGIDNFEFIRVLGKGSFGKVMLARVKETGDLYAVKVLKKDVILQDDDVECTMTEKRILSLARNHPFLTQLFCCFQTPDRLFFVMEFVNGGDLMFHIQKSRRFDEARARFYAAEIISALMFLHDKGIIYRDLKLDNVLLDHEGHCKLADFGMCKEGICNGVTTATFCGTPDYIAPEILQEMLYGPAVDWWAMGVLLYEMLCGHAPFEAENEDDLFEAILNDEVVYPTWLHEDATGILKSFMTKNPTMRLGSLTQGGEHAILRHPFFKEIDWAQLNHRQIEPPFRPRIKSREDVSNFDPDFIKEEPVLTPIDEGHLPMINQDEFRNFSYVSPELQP

[30] = target: Serine/threonine-protein kinase tousled-like 2 (Homo sapiens) (UniProt Q86UE8); conditions: Compound concentration 1000.0 nM
[31] = target: Interleukin-1 receptor-associated kinase 3 (Homo sapiens) (UniProt Q9Y616); conditions: Compound concentration 1000.0 nM
[32] = target: Serine/threonine-protein kinase 4 (Homo sapiens) (UniProt Q13043); conditions: Compound concentration 1000.0 nM
Serine/threonine-protein kinase 4 (Homo sapiens), sequence (Q13043 whole entry): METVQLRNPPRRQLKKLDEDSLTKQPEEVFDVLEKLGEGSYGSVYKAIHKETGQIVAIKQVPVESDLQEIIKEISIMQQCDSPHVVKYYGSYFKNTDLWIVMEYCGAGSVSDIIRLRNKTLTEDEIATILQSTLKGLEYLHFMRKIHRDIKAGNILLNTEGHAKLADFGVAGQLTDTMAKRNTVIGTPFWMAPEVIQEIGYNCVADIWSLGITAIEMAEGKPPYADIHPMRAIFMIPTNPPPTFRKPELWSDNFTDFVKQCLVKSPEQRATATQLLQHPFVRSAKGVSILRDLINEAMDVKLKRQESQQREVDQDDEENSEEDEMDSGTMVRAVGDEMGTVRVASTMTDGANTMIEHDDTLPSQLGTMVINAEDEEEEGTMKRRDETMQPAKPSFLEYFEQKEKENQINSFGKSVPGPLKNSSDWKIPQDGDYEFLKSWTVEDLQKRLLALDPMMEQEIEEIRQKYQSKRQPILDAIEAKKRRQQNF

[33] = target: Serine/threonine-protein kinase pim-1 (Homo sapiens) (UniProt P11309); conditions: Compound concentration 1000.0 nM
[34] = target: Cyclin-dependent kinase-like 5 (Homo sapiens) (UniProt O76039); conditions: Compound concentration 1000.0 nM
Cyclin-dependent kinase-like 5 (Homo sapiens), sequence (O76039 whole entry): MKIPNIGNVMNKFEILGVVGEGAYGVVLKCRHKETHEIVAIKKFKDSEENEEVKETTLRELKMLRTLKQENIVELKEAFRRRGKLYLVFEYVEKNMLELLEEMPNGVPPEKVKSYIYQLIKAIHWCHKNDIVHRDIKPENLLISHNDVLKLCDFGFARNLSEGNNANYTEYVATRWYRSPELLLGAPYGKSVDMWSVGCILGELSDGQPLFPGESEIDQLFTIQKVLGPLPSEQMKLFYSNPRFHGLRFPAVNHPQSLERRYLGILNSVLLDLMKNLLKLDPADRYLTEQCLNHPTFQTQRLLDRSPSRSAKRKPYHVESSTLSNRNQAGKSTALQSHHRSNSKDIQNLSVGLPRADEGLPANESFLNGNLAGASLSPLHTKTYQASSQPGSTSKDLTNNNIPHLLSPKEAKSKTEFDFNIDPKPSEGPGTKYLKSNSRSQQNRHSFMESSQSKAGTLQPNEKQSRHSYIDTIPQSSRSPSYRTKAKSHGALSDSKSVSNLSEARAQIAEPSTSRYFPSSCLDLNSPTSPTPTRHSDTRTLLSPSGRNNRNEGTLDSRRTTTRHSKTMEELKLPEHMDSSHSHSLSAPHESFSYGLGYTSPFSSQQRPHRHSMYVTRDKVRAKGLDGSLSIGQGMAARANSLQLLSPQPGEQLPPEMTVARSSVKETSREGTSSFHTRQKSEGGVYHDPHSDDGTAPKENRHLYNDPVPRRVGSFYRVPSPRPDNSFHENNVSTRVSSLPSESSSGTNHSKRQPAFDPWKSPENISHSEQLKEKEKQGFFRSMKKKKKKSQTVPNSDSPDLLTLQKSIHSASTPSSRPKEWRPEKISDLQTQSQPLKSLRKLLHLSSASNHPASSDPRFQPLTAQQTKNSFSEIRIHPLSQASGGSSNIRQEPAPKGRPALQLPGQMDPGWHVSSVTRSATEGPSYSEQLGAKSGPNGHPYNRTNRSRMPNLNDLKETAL

[35] = target: Tyrosine-protein kinase Fes/Fps (Homo sapiens) (UniProt P07332); conditions: Compound concentration 1000.0 nM
Tyrosine-protein kinase Fes/Fps (Homo sapiens), sequence (P07332 whole entry): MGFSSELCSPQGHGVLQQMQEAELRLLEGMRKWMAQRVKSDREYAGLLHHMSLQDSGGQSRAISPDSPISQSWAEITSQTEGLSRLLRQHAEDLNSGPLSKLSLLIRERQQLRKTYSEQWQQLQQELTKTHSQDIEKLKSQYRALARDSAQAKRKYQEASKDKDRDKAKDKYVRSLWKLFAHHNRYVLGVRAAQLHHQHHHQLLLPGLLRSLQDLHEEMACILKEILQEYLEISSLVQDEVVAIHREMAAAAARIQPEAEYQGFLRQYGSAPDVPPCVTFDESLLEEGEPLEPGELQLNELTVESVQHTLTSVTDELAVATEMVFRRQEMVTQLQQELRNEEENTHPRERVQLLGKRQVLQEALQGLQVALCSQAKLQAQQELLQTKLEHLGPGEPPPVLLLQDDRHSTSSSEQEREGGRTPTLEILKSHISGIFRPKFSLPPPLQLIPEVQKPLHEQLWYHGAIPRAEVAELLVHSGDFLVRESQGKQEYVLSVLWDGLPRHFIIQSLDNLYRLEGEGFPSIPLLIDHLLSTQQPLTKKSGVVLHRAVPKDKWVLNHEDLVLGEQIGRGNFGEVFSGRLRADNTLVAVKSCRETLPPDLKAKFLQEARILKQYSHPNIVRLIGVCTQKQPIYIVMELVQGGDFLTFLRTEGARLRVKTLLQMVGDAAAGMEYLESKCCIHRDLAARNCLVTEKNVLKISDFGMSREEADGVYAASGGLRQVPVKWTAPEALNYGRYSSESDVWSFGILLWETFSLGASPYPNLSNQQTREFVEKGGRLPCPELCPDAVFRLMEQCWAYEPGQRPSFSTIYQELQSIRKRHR

[36] = target: Serine/threonine-protein kinase Nek6 (Homo sapiens) (UniProt Q9HC98); conditions: Compound concentration 1000.0 nM
[37] = system: Epidermal growth factor receptor (Homo sapiens), P00533 [UNDEFINED MUTATION]; conditions: Compound concentration 1000.0 nM
Epidermal growth factor receptor (Homo sapiens), P00533 [UNDEFINED MUTATION], sequence (P00533 whole entry, looked up, change not shown): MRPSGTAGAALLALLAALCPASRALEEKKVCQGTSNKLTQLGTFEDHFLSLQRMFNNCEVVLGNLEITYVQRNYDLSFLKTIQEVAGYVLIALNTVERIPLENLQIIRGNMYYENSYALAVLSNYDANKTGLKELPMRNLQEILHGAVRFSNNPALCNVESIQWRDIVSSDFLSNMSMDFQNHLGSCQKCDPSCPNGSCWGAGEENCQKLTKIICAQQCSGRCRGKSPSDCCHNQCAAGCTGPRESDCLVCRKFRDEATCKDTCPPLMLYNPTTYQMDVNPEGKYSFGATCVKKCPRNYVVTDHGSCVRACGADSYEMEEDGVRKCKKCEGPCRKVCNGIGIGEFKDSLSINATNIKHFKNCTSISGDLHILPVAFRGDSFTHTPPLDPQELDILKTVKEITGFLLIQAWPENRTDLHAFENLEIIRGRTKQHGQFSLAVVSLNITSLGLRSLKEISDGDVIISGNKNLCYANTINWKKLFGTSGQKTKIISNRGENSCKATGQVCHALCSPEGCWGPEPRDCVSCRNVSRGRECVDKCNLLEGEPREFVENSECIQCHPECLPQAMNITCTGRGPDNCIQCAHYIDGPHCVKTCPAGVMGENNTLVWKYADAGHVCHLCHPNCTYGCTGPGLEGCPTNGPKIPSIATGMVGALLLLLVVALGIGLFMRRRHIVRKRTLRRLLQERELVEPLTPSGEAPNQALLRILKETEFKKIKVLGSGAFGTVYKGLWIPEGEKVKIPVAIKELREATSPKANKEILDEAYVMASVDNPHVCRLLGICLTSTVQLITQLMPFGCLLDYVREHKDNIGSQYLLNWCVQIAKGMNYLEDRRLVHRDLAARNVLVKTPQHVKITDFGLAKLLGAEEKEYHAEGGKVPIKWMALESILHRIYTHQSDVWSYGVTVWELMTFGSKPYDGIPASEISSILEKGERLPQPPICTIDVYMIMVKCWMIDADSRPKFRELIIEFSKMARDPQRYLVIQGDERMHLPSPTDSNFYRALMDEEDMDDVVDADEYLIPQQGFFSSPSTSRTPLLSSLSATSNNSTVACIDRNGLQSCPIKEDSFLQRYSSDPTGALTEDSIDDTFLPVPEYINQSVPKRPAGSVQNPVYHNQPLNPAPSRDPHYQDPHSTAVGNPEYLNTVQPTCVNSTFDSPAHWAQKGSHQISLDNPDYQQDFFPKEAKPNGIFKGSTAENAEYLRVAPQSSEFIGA

[38] = target: Tyrosine-protein kinase TXK (Homo sapiens) (UniProt P42681); conditions: Compound concentration 1000.0 nM
[39] = system: Phosphatidylinositol 4,5-bisphosphate 3-kinase catalytic subunit alpha isoform (Homo sapiens), P42336 [Q546K]; conditions: Compound concentration 1000.0 nM
[40] = target: Calcium/calmodulin-dependent protein kinase type 1D (Homo sapiens) (UniProt Q8IU85); conditions: Compound concentration 1000.0 nM
[41] = target: Ephrin type-A receptor 6 (Homo sapiens) (UniProt Q9UF33); conditions: Compound concentration 1000.0 nM
[42] = target: Muscarinic acetylcholine receptor M5 (Homo sapiens) (UniProt P08912); conditions: Compound concentration 10.0 uM
[43] = target: Serine/threonine-protein kinase NIM1 (Homo sapiens) (UniProt Q8IY84); conditions: Compound concentration 1000.0 nM
[44] = target: Cyclin-dependent kinase 4 (Homo sapiens) (UniProt P11802); conditions: Compound concentration 1000.0 nM
[45] = system: Epidermal growth factor receptor (Homo sapiens), P00533 [UNDEFINED MUTATION]; conditions: Compound concentration 1000.0 nM; remark: listed apart in the source

O=C(Nc1ccc(Oc2ccc(F)cc2)cc1)N1CCc2ncccc2[C@H]1c1ccc(F)cc1 [BAY-897]
inactive: residual activity [1] 100% | residual activity [2] 96% | residual activity [3] 100% | residual activity [4] 90% | residual activity [5] 84% | residual activity [6] 96% | residual activity [7] 98% | residual activity [8] 95% | residual activity [9] 70% | inhibition [10] 16.9% | residual activity [11] 87% | residual activity [12] 94% | residual activity [13] 50% | residual activity [14] 100% | residual activity [15] 100% | inhibition [16] -1.78% | residual activity [17] 89% | residual activity [19] 86% | inhibition [20] 15.9% | residual activity [21] 95% | residual activity [22] 100% | residual activity [23] 94% | residual activity [24] 99% | residual activity [25] 82% | residual activity [26] 85% | residual activity [27] 98% | inhibition [28] 29.1% | residual activity [29] 93% | residual activity [30] 100% | residual activity [31] 100% | residual activity [32] 99% | residual activity [33] 99% | residual activity [34] 100% | residual activity [35] 100% | residual activity [36] 100% | residual activity [37] 80% | residual activity [38] 100% | residual activity [39] 75% | residual activity [40] 100% | residual activity [41] 100% | inhibition [42] -1.7% | residual activity [43] 80% | residual activity [44] 96% | residual activity [45] 100%
2400 nM: Ki [18]

O=C(Nc1cnc(Oc2ccc(F)cc2)nc1)N1CCc2ncccc2[C@@H]1c1ccc(F)cc1 [BAY-899]
inactive: residual activity [1] 100% | residual activity [2] 90% | residual activity [3] 100% | residual activity [4] 100% | residual activity [5] 81% | residual activity [6] 100% | residual activity [7] 84% | residual activity [8] 97% | residual activity [9] 81% | inhibition [10] -3.59% | residual activity [11] 84% | residual activity [12] 100% | residual activity [13] 69% | residual activity [14] 100% | residual activity [15] 82% | inhibition [16] -5.1% | residual activity [17] 80% | residual activity [19] 90% | inhibition [20] 5.89% | residual activity [21] 95% | residual activity [22] 91% | residual activity [23] 100% | residual activity [24] 100% | residual activity [25] 77% | residual activity [26] 77% | residual activity [27] 96% | inhibition [28] 10.1% | residual activity [29] 76% | residual activity [30] 89% | residual activity [31] 100% | residual activity [32] 100% | residual activity [33] 91% | residual activity [34] 89% | residual activity [35] 100% | residual activity [36] 100% | residual activity [37] 70% | residual activity [38] 87% | residual activity [39] 95% | residual activity [40] 100% | residual activity [41] 100% | inhibition [42] 12% | residual activity [43] 90% | residual activity [44] 100% | residual activity [45] 100%
1430 nM: Ki [18]
